Consider 1 molecule from US12263198B1, “Compositions and methods of improving ruminant performance” (Ralco Nutrition, Inc., priority 2021, dated 2025).

Marks after values point to notes of the source that are not given here.

The subject of this assay is rumen fluid. Put plainly: ANKOM artificial rumen system, dry matter digestibility of hay. Type of assay: cell-based, steers. The note with it: 24 hours. Here is the method:
This study was conducted to evaluate the feed additive composition in an ANKOM artificial rumen system to compare digestibility of a feed additive of a cobalt lactate/yeast blend, relative to a feed additive of only cobalt lactate and a feed additive of only yeast. In each run, two cannulated steers were used to collect rumen fluid from the two steers at the Ralco Beef Research Farm in Marshall, MN. The rumen fluid was mixed with a buffer solution along with a different feed additive composition in each of three jars and a fourth jar having a control with no treatment. Eight runs were performed at differing amounts of cobalt lactate, yeast, and blends of cobalt lactate and yeast, as shown in each of the tables below. The cobalt lactate used in Runs 1-8 was Microbial Catalyst® from Ralco. The yeast used in Runs 1-8 was Emprove MX from Emmert.
Dacron bags with hay (Barley straw, DM 94.2, CP 5.4, ADF 54.15, NDF 75.6, Neg/cwt 17.7 and Nem/cwt 42.5 respectively) samples were then added to each jar, the jar was purged with CO2 and incubated for 24 hours at 39.5 degrees C. At the end of the 24 hours, the bags were removed, washed with clear tap water and run through the ANKOM fiber analyzer. At that point, the bags were dried and re-weighed, and the weight entered into formulas to give a dry matter digestibility value.
In this study a similar analysis was performed as in Example 5. In this example, Formulation A (used in Runs 6-8) was compared to Product 1 (Diamond V XPC®) and Product 2 (Amaferm® from BioZyme). The protocol used in this example is the same as that provided above for Example 5.

As to `CC(O)C(=O)[O-].CC(O)C(=O)[O-].[Co+2]` (centres unmarked) [cobalt lactate], the DMD was 54.37^b (Run 1, 3.0 g); 57.04^b (Run 2, 6.0 g); 61.87^b (Run 3, 3.0 g); 61.83^c (Run 4, 3.0 g); 64.59^c (Run 5, 3.0 g); 62.41^c (Run 6, 3.0 g). The DMD is 62.17^b (Run 7, 3.0 g) and 66.71^c (Run 8, 3.0 g).
